Earlier results as cited in patent US11109615B2, “Vitamin A composition” (NESTEC S.A., priority 2015, dated 2021).

Conditions: ambient conditions

## CC1=C(/C=C/C(C)=C/C=C/C(C)=C/C=C/C=C(C)/C=C/C=C(C)/C=C/C2=C(C)CCCC2(C)C)C(C)(C)CCC1 [β-carotene, All-trans-β-carotene]
  maximum solubility: 0.08 g/100 g oil
